Assay results from ChEMBL document CHEMBL4396975, “Sodium Channel Modulators and Their Method of Use” (ACS Med Chem Lett, 2019).

target: Sodium channel protein type 9 subunit alpha (Homo sapiens, UniProt Q15858); test: Inhibition of human Nav1.7 expressed in HEK293 cells by automated electrophysiological patch clamp assay; format: cell-based
Sequence (Q15858 whole entry): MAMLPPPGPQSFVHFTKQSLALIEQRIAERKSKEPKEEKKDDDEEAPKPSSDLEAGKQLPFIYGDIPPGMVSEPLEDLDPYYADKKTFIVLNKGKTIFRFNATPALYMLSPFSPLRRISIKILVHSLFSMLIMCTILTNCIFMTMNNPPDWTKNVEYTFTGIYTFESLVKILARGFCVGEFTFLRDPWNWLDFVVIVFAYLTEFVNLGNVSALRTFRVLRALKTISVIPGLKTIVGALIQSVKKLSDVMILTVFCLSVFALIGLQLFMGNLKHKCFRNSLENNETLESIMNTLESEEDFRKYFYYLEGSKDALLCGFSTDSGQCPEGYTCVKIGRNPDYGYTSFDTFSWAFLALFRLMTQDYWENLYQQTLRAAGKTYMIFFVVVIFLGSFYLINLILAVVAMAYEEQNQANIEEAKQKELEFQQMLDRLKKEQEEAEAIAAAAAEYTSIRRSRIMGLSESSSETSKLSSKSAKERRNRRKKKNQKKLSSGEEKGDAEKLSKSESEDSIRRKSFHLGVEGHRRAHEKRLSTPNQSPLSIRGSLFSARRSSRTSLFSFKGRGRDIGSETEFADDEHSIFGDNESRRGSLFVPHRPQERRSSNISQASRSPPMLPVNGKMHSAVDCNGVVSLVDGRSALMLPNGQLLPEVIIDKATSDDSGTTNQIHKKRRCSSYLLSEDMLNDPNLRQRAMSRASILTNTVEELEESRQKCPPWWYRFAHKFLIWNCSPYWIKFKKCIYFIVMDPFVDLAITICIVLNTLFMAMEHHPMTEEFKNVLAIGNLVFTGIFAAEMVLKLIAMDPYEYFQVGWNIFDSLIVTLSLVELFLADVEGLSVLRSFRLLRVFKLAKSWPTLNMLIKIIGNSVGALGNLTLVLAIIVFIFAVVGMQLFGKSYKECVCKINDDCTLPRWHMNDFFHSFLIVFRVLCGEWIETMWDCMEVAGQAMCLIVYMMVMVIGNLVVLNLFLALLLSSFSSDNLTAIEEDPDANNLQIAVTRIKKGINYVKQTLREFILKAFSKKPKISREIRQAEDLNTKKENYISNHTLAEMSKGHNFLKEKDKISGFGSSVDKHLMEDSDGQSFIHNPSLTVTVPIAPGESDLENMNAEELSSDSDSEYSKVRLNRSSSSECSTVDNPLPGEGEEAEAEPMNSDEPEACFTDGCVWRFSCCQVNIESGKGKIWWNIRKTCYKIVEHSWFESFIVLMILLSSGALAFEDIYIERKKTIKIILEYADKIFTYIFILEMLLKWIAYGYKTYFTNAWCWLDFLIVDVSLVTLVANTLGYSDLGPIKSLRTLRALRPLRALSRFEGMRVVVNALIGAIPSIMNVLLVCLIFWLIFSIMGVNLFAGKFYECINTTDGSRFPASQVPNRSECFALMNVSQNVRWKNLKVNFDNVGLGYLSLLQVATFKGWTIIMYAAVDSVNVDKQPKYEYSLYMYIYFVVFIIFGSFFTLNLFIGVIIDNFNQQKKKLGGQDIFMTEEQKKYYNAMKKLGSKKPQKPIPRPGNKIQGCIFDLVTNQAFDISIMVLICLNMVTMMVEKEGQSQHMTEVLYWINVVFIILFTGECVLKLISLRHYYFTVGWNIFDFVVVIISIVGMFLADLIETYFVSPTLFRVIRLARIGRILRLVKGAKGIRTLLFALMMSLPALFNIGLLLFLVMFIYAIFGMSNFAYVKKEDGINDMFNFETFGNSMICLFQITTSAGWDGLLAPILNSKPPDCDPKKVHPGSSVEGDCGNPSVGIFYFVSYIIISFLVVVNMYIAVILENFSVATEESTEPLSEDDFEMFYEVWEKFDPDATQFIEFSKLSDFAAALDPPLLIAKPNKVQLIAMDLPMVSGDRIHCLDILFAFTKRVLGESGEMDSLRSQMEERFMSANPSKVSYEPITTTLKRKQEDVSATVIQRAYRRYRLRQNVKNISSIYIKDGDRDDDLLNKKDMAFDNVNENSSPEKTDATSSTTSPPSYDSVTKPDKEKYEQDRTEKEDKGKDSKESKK

Row | Structure (SMILES) | IC50
1 | Cc1cc(C(F)(F)F)ccc1-n1nnnc1Oc1ccc([C@H]2CC[C@@H](C(N)=O)N2)cc1 | 1.2 µM
2 | NC(=O)[C@@H]1CC[C@H](c2ccc(Oc3nnnn3-c3cc(F)ccc3OC(F)(F)F)cc2)N1 | 0.57 µM
3 | CN(C)C(=O)[C@@H]1CC[C@H](c2ccc(Oc3nnnn3-c3ccccc3OC(F)(F)F)cc2)N1 | 1.8 µM
4 | CC(C)(C)c1ccccc1-n1nnnc1Oc1ccc([C@H]2CC[C@@H](C(N)=O)N2)cc1 | 1.5 µM
5 | CN1[C@@H](c2ccc(Oc3nnnn3-c3ccccc3C(F)(F)F)cc2)CC[C@H]1C(N)=O | 1.8 µM
6 | NC(=O)[C@@H]1CC[C@H](c2ccc(Oc3nnnn3-c3cc(Cl)ccc3OC(F)(F)F)cc2)N1 | 0.68 µM
7 | COc1ccc(C)c(-n2nnnc2Oc2ccc([C@H]3CC[C@@H](C(N)=O)N3)cc2)c1 | 1.1 µM
8 | NC(=O)[C@@H]1CC[C@H](c2ccc(Oc3nnnn3-c3ccccc3OC(F)(F)F)cc2)N1 | 1.1 µM
9 | Cc1cccc(C)c1-n1nnnc1Oc1ccc([C@H]2CC[C@@H](C(N)=O)N2)cc1 | 0.89 µM
10 | Cc1ccc(Cl)cc1-n1nnnc1Oc1ccc([C@H]2CC[C@@H](C(N)=O)N2)cc1 | 0.72 µM
